From ChEMBL document CHEMBL1201862, “PubChem BioAssay data set” (2004)
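96-well plates; 48 h exposure; 5 concentrations. Endpoints by linear interpolation between flanking doses. Not reached: highest tested concentration assigned. GI50 = concentration required for 50% inhibition of growth.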 Active and inactive are the calls of the source. Rule as the data show it: active = GI50 up to about 1.1 µM and inactive = higher.

Tests used:
Test in all cases: NCI tumour cell line growth inhibition, 48 h
U-251 = system: U-251
HCT-15 = system: HCT-15
RXF 393 = system: RXF 393
SR = system: SR
786-0 = system: 786-0
NCI-H23 = system: NCI-H23
SF-539 = system: SF-539
UO-31 = system: UO-31
TK-10 = system: TK-10
BT-549 = system: BT-549
A498 = system: A498
ACHN = system: ACHN
CAKI-1 = system: CAKI-1
HCC 2998 = system: HCC 2998
PC-3 = system: PC-3
A549 = system: A549
OVCAR-8 = system: OVCAR-8
MDA-MB-231 = system: MDA-MB-231
DU-145 = system: DU-145
SK-MEL-5 = system: SK-MEL-5

Row | SMILES | GI50 (U-251) | GI50 (HCT-15) | GI50 (RXF 393) | GI50 (SR) | GI50 (786-0) | GI50 (NCI-H23) | GI50 (SF-539) | GI50 (UO-31) | GI50 (TK-10) | GI50 (BT-549) | GI50 (A498) | GI50 (ACHN) | GI50 (CAKI-1) | GI50 (HCC 2998) | GI50 (PC-3) | GI50 (A549) | GI50 (OVCAR-8) | GI50 (MDA-MB-231) | GI50 (DU-145) | GI50 (SK-MEL-5)
1 | Cc1nc2c(O)cccc2c(=O)[nH]1 | 670 µM (inactive) | 270 µM | 158 µM (inactive) | 114 µM (inactive) | > 1000 µM (inactive) | 303 µM (inactive) | 355 µM (inactive) | 282 µM (inactive) | 302 µM (inactive) | 174 µM (inactive) | 419 µM (inactive) | 348 µM (inactive) | 256 µM (inactive) | 418 µM (inactive) | 451 µM (inactive) | 360 µM (inactive) | 437 µM (inactive) |  |  | 
2 | N[C@H](Cc1ccc2oc3cc(=O)c4ccccc4c-3nc2c1)C(=O)O | 98.4 µM (inactive) | 39.4 µM | 70.1 µM (inactive) | 17.9 µM (inactive) | 89.9 µM (inactive) | 23.7 µM (inactive) | 42.8 µM (inactive) | > 100 µM (inactive) | 97.5 µM (inactive) |  | 49.7 µM (inactive) | > 100 µM (inactive) | > 100 µM (inactive) |  |  | 33.7 µM (inactive) | 30.5 µM (inactive) | 62.7 µM (inactive) | 21.7 µM (inactive) | 20.1 µM (inactive)
3 | COc1ccc(Nc2nc3c([nH]2)c(=O)n(C)c(=O)n3C)cc1 |  | > 10 µM | > 10 µM (inactive) | > 10 µM (inactive) | > 10 µM (inactive) | > 10 µM (inactive) |  |  | > 10 µM (inactive) |  |  |  | > 10 µM (inactive) | > 10 µM (inactive) | > 10 µM (inactive) | > 10 µM (inactive) | > 10 µM (inactive) | > 10 µM (inactive) | > 10 µM (inactive) | > 10 µM (inactive)
4 | O=C1NCC2(CCN(CCCC3(c4ccc(F)cc4)OCCO3)CC2)N1c1ccccc1 | > 100 µM (inactive) | > 100 µM | > 100 µM (inactive) | > 100 µM (inactive) | > 100 µM (inactive) | > 100 µM (inactive) | > 100 µM (inactive) |  | > 100 µM (inactive) |  | 86.3 µM (inactive) | > 100 µM (inactive) | 50.1 µM (inactive) | > 100 µM (inactive) | > 100 µM (inactive) | > 100 µM (inactive) | > 100 µM (inactive) | > 100 µM (inactive) | > 100 µM (inactive) | > 100 µM (inactive)
5 | N#Cc1c(-c2ccccc2)nc(-c2ccccc2)sc1=S | > 100 µM (inactive) | > 100 µM | > 100 µM (inactive) |  | > 100 µM (inactive) | > 100 µM (inactive) | > 100 µM (inactive) | > 100 µM (inactive) | > 100 µM (inactive) | > 100 µM (inactive) | > 100 µM (inactive) | > 100 µM (inactive) | > 100 µM (inactive) | > 100 µM (inactive) |  | > 100 µM (inactive) | > 100 µM (inactive) | > 100 µM (inactive) | > 100 µM (inactive) | > 100 µM (inactive)
6 | CN(C)c1ccc(-c2c(C#N)c(-c3ccccc3)n(NS(=O)(=O)c3ccccc3)c(=O)c2C#N)cc1 | 50.7 µM (inactive) | 77.3 µM | 44 µM (inactive) |  | 69.5 µM (inactive) |  | 33.3 µM (inactive) |  | 79.6 µM (inactive) | 56.9 µM (inactive) | 57 µM (inactive) | 45.8 µM (inactive) | 45.7 µM (inactive) | 30.1 µM (inactive) | 26.9 µM (inactive) | 42.9 µM (inactive) | 31.4 µM (inactive) | 88.1 µM (inactive) |  | 20.4 µM (inactive)
7 | COc1ccc2nc3n(c2c1)C(c1c(Cl)cccc1Cl)SC3 (stereo unspecified) | > 100 µM (inactive) | > 100 µM | > 100 µM (inactive) | > 100 µM (inactive) | > 100 µM (inactive) | > 100 µM (inactive) |  | > 100 µM (inactive) | > 100 µM (inactive) | > 100 µM (inactive) | > 100 µM (inactive) | > 100 µM (inactive) | > 100 µM (inactive) | > 100 µM (inactive) | > 100 µM (inactive) | > 100 µM (inactive) | > 100 µM (inactive) |  | > 100 µM (inactive) | > 100 µM (inactive)
8 | Cc1cn(C2C=CC(COP(=O)(OCc3ccc([N+](=O)[O-])o3)N(C)CCCCCl)O2)c(=O)[nH]c1=O (stereo unspecified) | 5.58 µM (inactive) | 16.6 µM | 2.38 µM (inactive) | 1.89 µM (inactive) | 10.9 µM (inactive) | 3.05 µM (inactive) | 3.72 µM (inactive) | 16.7 µM (inactive) | 16.6 µM (inactive) |  |  | 15.3 µM (inactive) | 16 µM (inactive) |  | 12.8 µM (inactive) | 10.9 µM (inactive) | 13.9 µM (inactive) | 12.1 µM (inactive) | 13.3 µM (inactive) | 1.22 µM (inactive)
9 | CCC(NC(C)c1ccccc1)C(O)c1ccc(OCc2ccccc2)c(OCc2ccccc2)c1 (stereo unspecified) | 13 µM (inactive) | 14.5 µM | 8.65 µM (inactive) | 2.47 µM (inactive) | 13.5 µM (inactive) | 16.4 µM (inactive) | 16.8 µM (inactive) | 11 µM (inactive) | 17.8 µM (inactive) |  | 24 µM (inactive) | 18 µM (inactive) | 11.9 µM (inactive) | 2.37 µM (inactive) | 13.9 µM (inactive) | 16 µM (inactive) | 14.1 µM (inactive) | 8.47 µM (inactive) | 18.2 µM (inactive) | 4.45 µM (inactive)
10 | CO/C(=N\N=C\c1cc(OC)ccc1OC)c1ccncc1 | > 10 µM (inactive) | > 10 µM | > 10 µM (inactive) | > 10 µM (inactive) | > 10 µM (inactive) | > 10 µM (inactive) | > 10 µM (inactive) | > 10 µM (inactive) | > 10 µM (inactive) |  | > 10 µM (inactive) | > 10 µM (inactive) |  | > 10 µM (inactive) | > 10 µM (inactive) | > 10 µM (inactive) | > 10 µM (inactive) |  |  | > 10 µM (inactive)
11 | COC(=O)CSc1[nH]c2nc(C)nc(Nc3ccccc3)c2c1C#N |  | > 10 µM | > 10 µM (inactive) | > 10 µM (inactive) | > 10 µM (inactive) | > 10 µM (inactive) |  |  | > 10 µM (inactive) |  |  |  | > 10 µM (inactive) | > 10 µM (inactive) | > 10 µM (inactive) | > 10 µM (inactive) | > 10 µM (inactive) | > 10 µM (inactive) | > 10 µM (inactive) | > 10 µM (inactive)
12 | CCOC(=O)C1(Cc2ccccc2)Cc2ccccc2C1=O (stereo unspecified) | 34.6 µM (inactive) | 30.9 µM |  | 22 µM (inactive) | 32.5 µM (inactive) | 17.3 µM (inactive) | 35.1 µM (inactive) | 14.6 µM (inactive) | 36.8 µM (inactive) |  |  | 28.1 µM (inactive) |  | 34.4 µM (inactive) | 17.6 µM (inactive) | 23.7 µM (inactive) | 28.8 µM (inactive) | 25.9 µM (inactive) | 45.2 µM (inactive) | 15.1 µM (inactive)
13 | CC12C(=CC(=O)CC1SCCS(=O)(=O)O)C(C#N)=C(N)N2c1ccc(Cl)c(Cl)c1 (stereo unspecified) | > 100 µM (inactive) | > 100 µM | 36.8 µM (inactive) | > 100 µM (inactive) | > 100 µM (inactive) | > 100 µM (inactive) | > 100 µM (inactive) | > 100 µM (inactive) | > 100 µM (inactive) |  | > 100 µM (inactive) | > 100 µM (inactive) | > 100 µM (inactive) | > 100 µM (inactive) |  | > 100 µM (inactive) | > 100 µM (inactive) |  |  | > 100 µM (inactive)
14 | O=c1c2cc([N+](=O)[O-])ccc2n2n1CCCCC2 | > 100 µM (inactive) | > 100 µM | > 100 µM (inactive) | > 100 µM (inactive) | > 100 µM (inactive) | > 100 µM (inactive) | > 100 µM (inactive) | > 100 µM (inactive) | 61.8 µM (inactive) |  | > 100 µM (inactive) | > 100 µM (inactive) | > 100 µM (inactive) | > 100 µM (inactive) | > 100 µM (inactive) | > 100 µM (inactive) | > 100 µM (inactive) | > 100 µM (inactive) | > 100 µM (inactive) | > 100 µM (inactive)
15 | NS(=O)(=O)c1ccc(CNc2nc(-c3cccs3)nc3ccc(I)cc23)cc1 | 18.1 µM (inactive) | 13.1 µM | 19.6 µM (inactive) | 15 µM (inactive) | 17.5 µM (inactive) | 17.9 µM (inactive) | 11.2 µM (inactive) | 2.11 µM (inactive) | 9.16 µM (inactive) | 12.7 µM (inactive) |  | 18.4 µM (inactive) | 6.15 µM (inactive) | 13.8 µM (inactive) | 19.4 µM (inactive) | 12.5 µM (inactive) | 18.4 µM (inactive) |  | 14.9 µM (inactive) | 14.1 µM (inactive)
16 | COc1cc(-c2oc3c(OC)c(O)c(OC)c(O)c3c(=O)c2OC)cc(O)c1OC | 43.4 µM (inactive) | 35.3 µM | 27.1 µM (inactive) |  | 44.4 µM (inactive) | 22.6 µM (inactive) | 20.7 µM (inactive) | 23.5 µM (inactive) | 39.2 µM (inactive) |  | 22.5 µM (inactive) | 50.6 µM (inactive) | 24.5 µM (inactive) | 31.3 µM (inactive) | 33.3 µM (inactive) | 46.9 µM (inactive) | 37.9 µM (inactive) | 46.2 µM (inactive) | 37.1 µM (inactive) | 21.4 µM (inactive)
